Results: PubChem BioAssay AID1963850 (Molecular Pharmacology Branch, DTP, NCI, 2024)

Test system: 192522-019-R-J2-PDC complex tumor spheroid viability
Experiment: Anticancer human tumor 192522-019-R-J2-PDC patient-derived colon adenocarcinoma cell line growth inhibition [POLQ]
Settings: for viability, T/C: stronger effect = lower value
Method: Multicellular complex tumor spheroid response to Polymerase (POL) inhibitors (novobiocin, ART-558, RP6685) in combination with a variety of drugs and investigational agents in selected tumor cell lines
The POL inhibitors (novobiocin, ART-558, and RP6685) were evaluated both individually and in combination with standard of care and investigational anticancer small molecules within a complex spheroid model of solid tumors. . Complex spheroids include a stromal component modeled by human endothelial cells (HUVEC) and fibroblasts modeled by human mesenchymal stem cells (MSCs). The concentration ranges selected for each drug and investigational agent were based upon clinically achievable concentrations if the clinical Cmax of the agent was known.
Compounds. The drugs and investigational agents: novobiocin (NSC847541), ART-558 (NSC835418), RP-6685 (NSC848927), peposertib (NSC802822), ceralasertib (NSC780249), elimusertib (NSC800525), camonsertib (NSC841442), AZD-1390 (NSC803789), olaparib (NSC753686), talazoparib (NSC767125), rucaparib (NSC756644), sotorasib (NSC818433), MRTX-1133 (NSC836407), SN-38 (NSC673596), topotecan (NSC609699), epotoside (NSC141540), doxorubicin (NSC123127), gemcitabine (NSC613327), 5-fluorouracil (NSC19893), paclitaxel (NSC125973), vemurafenib (NSC761431), MSA-2 (NSC828583), SN-011 (NSC837082), adavosertib (NSC754352), prexasertib (NSC758257), carboplatin (NSC241240) and oxaliplatin (NSC266046), were obtained from the National Cancer Institute (NCI) Developmental Therapeutics Program Chemical Repository (21). The FDA-approved anticancer drug set is available from the Developmental Therapeutics Program at https://dtp.cancer.gov/organization/dscb/obtaining/. […] The stock solutions were prepared in dimethyl sulfoxide (DMSO, Sigma-Aldrich, St. Louis, MO, cat. D2650), except for the platinum compounds which were prepared in saline (Quality Biological, Gaithersburg, MD, cat. 114-055-101), at 800-fold the tested concentration and stored at -70 degrees C prior to their use. All drugs and investigational agents were tested over a range starting from a high concentration at or near the clinical Cmax and decreasing in half-log increments. If the clinical Cmax for an agent had not been determined, the highest concentration tested was 10 microM, except for SN-38, which was tested at a high concentration of 1 microM.
Cell Culture. All cells were maintained in an incubator at 37 degrees C and 5% CO2 with 95% humidity. The PDC lines were cultured according to standard operating procedures established by the NCI PDMR (https://pdmr.cancer.gov). Table 3 of the manuscript, lists the cell lines along with the number of the three cell types plated to form the mct-spheroids and media for tumor cell growth. After thawing, all PDC lines, except 997537-175-T-J1-PDC and 415267-285-R-J2-PDC, were cultured in Matrigel-coated flasks prepared with a working solution of 1X Ham's F-12 nutrient mix, without supplementation (Thermo Fisher Scientific, cat. 11765054), 100 U/mL penicillin-streptomycin (Thermo Fisher Scientific, cat. 15140122), and 2.5% Matrigel (Corning Inc., Corning, NY, cat. 354248) for the first three passages. The two PDC lines 997537-175-T-J1-PDC and 415267-285-R-J2-PDC were cultured on uncoated flasks. The 857933-349-R-J2-PDC line was cultured in 6C/Colon 1B media containing advanced DMEM/F-12 (Thermo Fisher Scientific, cat. 12634028), 10 mM HEPES (Thermo Fisher Scientific, cat. 15630080), 1X GlutaMAX supplement (Thermo Fisher Scientific, cat. 35050061), 0.1 mg/mL primocin (InvivoGen, San Diego, CA, cat. ant-pm-2), 10% defined fetal bovine serum, heat inactivated (HyClone Laboratories Inc., Logan, UT, cat. SH30070.03HI), 50% L-WRN conditioned media (ATCC, cat. CRL-3276), 1.25 mM N-Acetyl-L-cysteine (Sigma-Aldrich, cat. A9165), 10 mM nicotinamide (Sigma-Aldrich, cat. N0636), 1X B-27 supplement (Thermo Fisher Scientific, cat. 17504044), 1X N-2 supplement (Thermo Fisher Scientific, cat. […]
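Also: spheroids exposed to drugs for seven days before reading.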
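For viability, T/C in this document: 100% = DMSO vehicle control viability in luminescence.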

**Q.** Which results are given for `CCCS(=O)(=O)Nc1ccc(F)c(C(=O)c2c[nH]c3ncc(-c4ccc(Cl)cc4)cc23)c1F` + COC1C(OC(N)=O)C(O)C(Oc2ccc3c(O)c(NC(=O)c4ccc(O)c(CC=C(C)C)c4)c(=O)oc3c2C)OC1(C)C?
**A.** IC50 (curve of first compound, second compound 0.0316 µM): > 10 µM; IC50 (curve of first compound, second compound 0.1 µM): > 10 µM; IC50 (curve of first compound, second compound 0.316 µM): > 10 µM; IC50 (curve of first compound, second compound 1 µM): > 10 µM; IC50 (curve of first compound, second compound 3.16 µM): > 10 µM; IC50 (curve of first compound, second compound 10 µM): > 10 µM; viability, T/C (second compound 0.0316 µM, first compound 0.0316 µM): 115%; viability, T/C (second compound 0.0316 µM, first compound 0.1 µM): 97.6%; viability, T/C (second compound 0.0316 µM, first compound 0.316 µM): 110%; viability, T/C (second compound 0.0316 µM, first compound 1 µM): 96.9%; viability, T/C (second compound 0.0316 µM, first compound 3.16 µM): 124%; viability, T/C (second compound 0.0316 µM, first compound 10 µM): 97.9%; viability, T/C (second compound 0.1 µM, first compound 0.0316 µM): 105%; viability, T/C (second compound 0.1 µM, first compound 0.1 µM): 103%; viability, T/C (second compound 0.1 µM, first compound 0.316 µM): 110%; viability, T/C (second compound 0.1 µM, first compound 1 µM): 108%; viability, T/C (second compound 0.1 µM, first compound 3.16 µM): 107%; viability, T/C (second compound 0.1 µM, first compound 10 µM): 113%; viability, T/C (second compound 0.316 µM, first compound 0.0316 µM): 109%; viability, T/C (second compound 0.316 µM, first compound 0.1 µM): 110%; viability, T/C (second compound 0.316 µM, first compound 0.316 µM): 105%; viability, T/C (second compound 0.316 µM, first compound 1 µM): 106%; viability, T/C (second compound 0.316 µM, first compound 3.16 µM): 104%; viability, T/C (second compound 0.316 µM, first compound 10 µM): 108%; viability, T/C (second compound 1 µM, first compound 0.0316 µM): 104%; viability, T/C (second compound 1 µM, first compound 0.1 µM): 100%; viability, T/C (second compound 1 µM, first compound 0.316 µM): 107%; viability, T/C (second compound 1 µM, first compound 1 µM): 103%; viability, T/C (second compound 1 µM, first compound 3.16 µM): 101%; viability, T/C (second compound 1 µM, first compound 10 µM): 100%; viability, T/C (second compound 3.16 µM, first compound 0.0316 µM): 110%; viability, T/C (second compound 3.16 µM, first compound 0.1 µM): 102%; viability, T/C (second compound 3.16 µM, first compound 0.316 µM): 108%; viability, T/C (second compound 3.16 µM, first compound 1 µM): 97.3%; viability, T/C (second compound 3.16 µM, first compound 3.16 µM): 106%; viability, T/C (second compound 3.16 µM, first compound 10 µM): 117%; viability, T/C (second compound 10 µM, first compound 0.0316 µM): 107%; viability, T/C (second compound 10 µM, first compound 0.1 µM): 102%; viability, T/C (second compound 10 µM, first compound 0.316 µM): 103%; viability, T/C (second compound 10 µM, first compound 1 µM): 101%; viability, T/C (second compound 10 µM, first compound 3.16 µM): 124%; viability, T/C (second compound 10 µM, first compound 10 µM): 117%

**Q.** How did the viability, T/C (compound 0.0316 µM) turn out when `Cc1cccc(N(C)C(=O)C2C(O)CCN2c2nc(C)cc(C(F)(F)F)c2C#N)c1` (stereo not given) was run?
**A.** The viability, T/C was 107% [middle of 13 runs].

**Q.** And the viability, T/C (compound 0.1 µM)?
**A.** Its viability, T/C is 108% [middle of 13 runs].

**Q.** What about the viability, T/C (compound 0.316 µM) of the same compound?
**A.** The viability, T/C was 110% [middle of 13 runs].

**Q.** What about the viability, T/C (compound 1 µM) of the same compound?
**A.** Its viability, T/C is 106% [middle of 13 runs].

**Q.** What about the viability, T/C (compound 3.16 µM) of the same compound?
**A.** The viability, T/C was 106% [middle of 13 runs].

**Q.** And the viability, T/C (compound 10 µM)?
**A.** Its viability, T/C is 110% [middle of 13 runs].

**Q.** And the IC50 (compound alone, run of 10/31/2023)?
**A.** The IC50 was over 10 µM.

**Q.** And the IC50 (compound alone, run of 11/06/2023)?
**A.** The IC50 was over 10 µM.
